Like-named read-outs stand apart in the source and are kept apart here.
Assays:
[1] = biological target: T1, human DGKζ (Homo sapiens (Human), UniProt Q13574); experiment: DGKζ assay (detergent/lipid micelle substrate); format: biochemical; details: detergent/lipid micelle substrate; read-out: DGKζ IC50
Procedure, shortened: (§1)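 Enzymes were baculovirus/Sf9 full-length human DGKα or DGKζ with His tag. The substrate was PS/DAG in octyl glucoside micelles, in MOPS pH 7.5 buffer with NaCl, MgCl2, CaCl2 and DTT.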

[2] = test system: Jurkat AP1-luciferase Reporter; experiment: DGK AP1-Reporter Assay; format: cell-based
Method: The Jurkat AP1-luciferase Reporter was generated using the Cignal Lenti AP1 Reporter (luc) Kit from SABiosciences (CLS-011L).
The sample size was 30 nl per well; and one destination plate per source plate. The cell suspensions were prepared by transferring 40 mL cells (2×20 mL) to clean 50 mL conical tubes. The cells were concentrated by centrifugation (1200 rpm; 5 mins; ambient temperature). […] The cell plates were incubated for 20 minutes at 37° C., and 5% CO2.
During the incubation, anti-CD3 antibody (αCD3) solutions were prepared by mixing 3 μl αCD3 (1.3 mg/mL) with 10 mL medium [final conc=0.4 μg/mL]. Next, 1.5 μl αCD3 (1.3 mg/mL) was mixed with 0.5 mL medium [final conc=4 μg/mL]. After 20 minutes, 10 μl medium was added to all wells in column 1, wells A to M, and 10 μl αCD3 (4 μg/mL) per well was added in column 1, rows N to P for reference. Then using a multi-channel pipette, 10 μl αCD3 (0.4 μg/mL) per well was added. The αCD3 stimulated +/− compound-treated cells were incubated at 37° C., 5% CO2 for 6 hours.
During this incubation period. Steady-Glo (Promega E2520) reagent was slowly thawed on to ambient temperature. Next, 20 μl Steady-Glo reagent per well was added using a multi-drop Combi-dispenser. Bubbles were removed by centrifugation (2000 rpm, ambient temperature, 10 sees). The cells were incubated at room temperature for 5 minutes. Samples were characterized by measuring the Relative Light Units (RLU) with an using Envision Plate Reader Instrument on a luminescence protocol.

[3] = biological target: T2, human DGKα (Homo sapiens (Human), UniProt P23743); experiment: biochemical; details: detergent/lipid micelle substrate; read-out: DGKα IC50
T2 sequence (P23743 other isoform, or with tags, fused parts or gaps): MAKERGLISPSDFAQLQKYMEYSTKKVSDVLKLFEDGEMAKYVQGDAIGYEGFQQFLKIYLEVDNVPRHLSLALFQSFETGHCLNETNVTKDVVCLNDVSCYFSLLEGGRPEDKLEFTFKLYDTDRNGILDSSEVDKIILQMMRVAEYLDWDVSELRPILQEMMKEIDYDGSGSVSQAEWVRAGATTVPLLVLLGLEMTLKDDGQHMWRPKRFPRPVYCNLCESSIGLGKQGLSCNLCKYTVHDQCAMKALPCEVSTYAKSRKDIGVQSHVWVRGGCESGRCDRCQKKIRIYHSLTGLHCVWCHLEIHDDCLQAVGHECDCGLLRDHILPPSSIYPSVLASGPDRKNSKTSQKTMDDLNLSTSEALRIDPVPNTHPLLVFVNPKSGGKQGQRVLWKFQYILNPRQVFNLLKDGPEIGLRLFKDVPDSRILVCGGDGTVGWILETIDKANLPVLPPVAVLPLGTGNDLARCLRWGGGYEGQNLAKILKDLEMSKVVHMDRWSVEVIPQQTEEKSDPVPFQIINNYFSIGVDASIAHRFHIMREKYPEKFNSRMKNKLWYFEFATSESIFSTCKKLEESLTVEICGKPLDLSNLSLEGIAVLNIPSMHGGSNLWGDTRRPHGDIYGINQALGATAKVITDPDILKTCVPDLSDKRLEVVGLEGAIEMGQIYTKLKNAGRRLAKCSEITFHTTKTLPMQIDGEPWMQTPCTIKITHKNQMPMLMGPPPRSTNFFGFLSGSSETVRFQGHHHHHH
Procedure, shortened: as §1

[4] = biological target: T1, human DGKζ; experiment: DGKζ LIPGLO assay (extruded liposome substrate); format: biochemical; details: extruded liposome substrate; read-out: DGKζ LIPGLO IC50
Procedure, shortened: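 Recombinant DGKζ (Sf9-expressed, Ni/SEC/SP-purified) preincubated 10 min with extruded 100 nm PC/DAG/PS liposomes in 50 mM MOPS pH 7.5, 100 mM NaCl, 10 mM MgCl2, 1 μM CaCl2, 1 mM DTT. Started with 300 uM ATP solution (stock, pre-addition); 1 hr reaction. ADP-Glo luminescence; IC50 from 11 concentrations.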

[5] = test system: pre-activated CD4 T cells and Raji cells; experiment: Raji CD4 T Cell IL2 Assay; format: cell-based; details: Homo sapiens, Raji
[6] = biological target: T2, human DGKα; experiment: DGKα LIPGLO assay (extruded liposome substrate); format: biochemical
Procedure, shortened: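 Human full-length DGKα, His-tagged and produced in Sf9 cells, assayed at 20 nM (4× stock) on extruded liposomes of PS, 0.25 mM DAG and 2.75 mM PC, preincubated 10 min. Reaction started with 300 μM ATP (stock) and ran 1 h in MOPS pH 7.5/MgCl2/CaCl2/DTT buffer.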

[7] = Homo sapiens, Jurkat, read-out: API-Luciferase Reporter IC50, Table 3

T1 sequence (Q13574 other isoform, or with tags, fused parts or gaps): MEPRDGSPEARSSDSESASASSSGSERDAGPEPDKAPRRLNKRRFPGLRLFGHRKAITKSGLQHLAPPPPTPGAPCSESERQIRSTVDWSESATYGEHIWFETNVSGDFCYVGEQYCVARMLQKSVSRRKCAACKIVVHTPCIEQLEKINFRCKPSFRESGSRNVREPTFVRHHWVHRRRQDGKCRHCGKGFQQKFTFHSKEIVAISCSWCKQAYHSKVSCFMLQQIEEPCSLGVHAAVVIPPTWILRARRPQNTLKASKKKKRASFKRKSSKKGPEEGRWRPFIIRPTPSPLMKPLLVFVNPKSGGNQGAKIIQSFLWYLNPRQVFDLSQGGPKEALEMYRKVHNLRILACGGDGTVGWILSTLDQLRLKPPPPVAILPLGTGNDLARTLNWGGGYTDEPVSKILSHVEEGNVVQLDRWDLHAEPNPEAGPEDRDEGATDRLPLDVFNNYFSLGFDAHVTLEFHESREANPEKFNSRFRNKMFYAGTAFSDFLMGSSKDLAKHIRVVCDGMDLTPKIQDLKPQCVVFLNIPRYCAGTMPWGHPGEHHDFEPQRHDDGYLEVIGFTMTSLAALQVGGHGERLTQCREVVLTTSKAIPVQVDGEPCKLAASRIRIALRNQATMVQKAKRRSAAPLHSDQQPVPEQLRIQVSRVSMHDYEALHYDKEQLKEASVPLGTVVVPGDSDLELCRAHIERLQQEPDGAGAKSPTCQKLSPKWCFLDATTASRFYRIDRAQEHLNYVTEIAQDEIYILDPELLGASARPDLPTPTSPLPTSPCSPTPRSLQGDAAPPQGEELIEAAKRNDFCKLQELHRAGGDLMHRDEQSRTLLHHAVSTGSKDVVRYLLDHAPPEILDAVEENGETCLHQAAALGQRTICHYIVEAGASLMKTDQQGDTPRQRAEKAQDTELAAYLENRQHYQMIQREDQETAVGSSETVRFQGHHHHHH

Q: How did the IC50 [1] turn out when `CC(c1ccc(F)cc1)N1CCN(c2c([N+](=O)[O-])c(=O)n(C)c3ccc(C#N)nc23)CC1` (stereo not drawn) [Example 43, 8-(4-(1-(4-fluorophenyl)ethyl)piperazin-1-yl)-5-methyl-7-nitro-6-oxo-5,6-dihydro-1,5-naphthyridine-2-carbonitrile] was run?
A: The IC50 was 6300 nM.

Q: And the IC50 [2, 7]?
A: The IC50 was 400 nM.

Q: And the IC50 [3]?
A: The IC50 was 37 nM.

Q: For `C#CCn1c(=O)c([N+](=O)[O-])c(N2CCN(C(c3ccc(F)cc3)c3ccc(F)cc3O)CC2)c2nc(C#N)ccc21` (single isomer, unassigned) [Example 120, 8-(4-((4-fluoro-2-hydroxyphenyl)(4-fluorophenyl)methyl)piperazin-1-yl)-7-nitro-6-oxo-5-(prop-2-yn-1-yl)-5,6-dihydro-1,5-naphthyridine-2-carbonitrile], which IC50 [1] is on record?
A: The IC50 was greater than 81000 nM.

Q: And the IC50 ([2]; read-out: API-Luciferase Reporter IC50, Table 3)?
A: The IC50 was 1300 nM.

Q: What about the IC50 [3] of the same compound?
A: The IC50 was 18000 nM.

Q: For `COCCn1c(=O)c([N+](=O)[O-])c(N2CCN(C(C)c3ccc(F)cc3)CC2)c2nc(C#N)ccc21` (racemic) [Example 148, 8-(4-(1-(4-fluorophenyl)ethyl)piperazin-1-yl)-5-(2-methoxyethyl)-7-nitro-6-oxo-5,6-dihydro-1,5-naphthyridine-2-carbonitrile], which IC50 [1] is on record?
A: The IC50 was 28000 nM.

Q: And the IC50 [2, 7]?
A: The IC50 was 870 nM.

Q: What about the IC50 [3] of the same compound?
A: The IC50 was 15000 nM.

Q: `COc1cc(F)ccc1C(c1ccc(F)cc1)N1CCN(c2c(C#N)c(=O)n(C)c3ccc(Br)nc23)CC1` (racemic) [Example 15, 6-bromo-4-{4-[(4-fluoro-2-methoxyphenyl)(4-fluorophenyl)methyl]piperazin-1-yl}-1-methyl-2-oxo-1,2-dihydro-1,5-naphthyridine-3-carbonitrile] was tested. Which IC50 [1] did it give?
A: Its IC50 is 58000 nM.

Q: And the IC50 [2, 7]?
A: Its IC50 is 1820 nM.

Q: And the IC50 [3]?
A: Its IC50 is 550 nM.

Q: Which results are given for `CCC(c1ccc(F)cc1)N1CCN(c2c(C#N)c(=O)n(C)c3ccc(Br)nc23)CC1` (racemic) [Example 25, 6-bromo-4-{4-[1-(4-fluorophenyl)propyl]piperazin-1-yl}-1-methyl-2-oxo-1,2-dihydro-1,5-naphthyridine-3-carbonitrile]?
A: IC50 [1]: > 81000 nM; IC50 [2, 7]: 1150 nM; IC50 [3]: 41 nM

Q: Which IC50 [2, 7] does the source give for `Cn1c(=O)c(C#N)c(N2CCN(Cc3cccc(C(C)(C)C)c3O)CC2)c2nc(Cl)ccc21` [Example 384, 4-{4-[(3-tert-butyl-2-hydroxyphenyl)methyl]piperazin-1-yl}-6-chloro-1-methyl-2-oxo-1,2-dihydro-1,5-naphthyridine-3-carbonitrile] here?
A: Its IC50 is 180 nM.

Q: `Cn1c(=O)c(C#N)c(N2CCN(Cc3cccc4c3NC(=O)C4)CC2)c2nc(Cl)ccc21` [Example 376, 6-chloro-1-methyl-2-oxo-4-{4-[(2-oxo-2,3-dihydro-1H-indol-7-yl)methyl]piperazin-1-yl}-1,2-dihydro-1,5-naphthyridine-3-carbonitrile] was tested. Which IC50 [2, 7] did it give?
A: The IC50 was 10000 nM.

Q: For `COCCn1c(=O)c(C#N)c(N2CCN(C(c3ccc(F)cc3)c3ccc(F)cc3)CC2)c2nc(Br)ccc21` [Example 113, 4-(4-(bis(4-fluorophenyl)methyl)piperazin-1-yl)-6-bromo-1-(2-methoxyethyl)-2-oxo-1,2-dihydro-1,5-naphthyridine-3-carbonitrile], which IC50 [2, 7] is on record?
A: The IC50 was 580 nM.

Q: `Cn1c(=O)c(C#N)c(N2CCN(Cc3cccc4c3NC(=O)C4)CC2)c2nc(Br)ccc21` [Example 374, 6-bromo-1-methyl-2-oxo-4-{4-[(2-oxo-2,3-dihydro-1H-indol-7-yl)methyl]piperazin-1-yl}-1,2-dihydro-1,5-naphthyridine-3-carbonitrile] was tested. Which IC50 [2, 7] did it give?
A: The IC50 was 7930 nM.

Q: Which IC50 [1] does the source give for `Cn1c(=O)c(C#N)c(N2CCN(Cc3cc(F)ccc3O)CC2)c2nc(Cl)ccc21` [Example 312, 6-chloro-4-{4-[(5-fluoro-2-hydroxyphenyl)methyl]piperazin-1-yl}-1-methyl-2-oxo-1,2-dihydro-1,5-naphthyridine-3-carbonitrile] here?
A: The IC50 was greater than 240000 nM.

Q: And the IC50 [4]?
A: Its IC50 is 16000 nM.

Q: And the IC50 [5]?
A: The IC50 was 240 nM.

Q: And the IC50 [3]?
A: The IC50 was 120 nM.

Q: What about the IC50 [6] of the same compound?
A: The IC50 was 220 nM.

Source: US11866430B2, “Naphthyridinone compounds useful as T cell activators” (priority 2018, dated 2024)
